Assay results published in patent US20240158446A1, “CYCLIC COMPOUND HAVING SELECTIVE INHIBITORY ACTION ON KRAS OVER HRAS AND NRAS” (CHUGAI SEIYAKU KABUSHIKI KAISHA, priority 2021, published 2024).
Like-named read-outs stand apart in the source and are kept apart here.

Tests used:
[1] = target: GDP-bound NRAS wild-type protein (Homo sapiens, UniProt P01111); assay: Binding to NRAS by surface plasmon resonance (SPR), Single Cycle Kinetics; conditions: for NRAS/KRAS (ratio of KD value with respect to GDP-bound NRAS wild-type protein to KD value with respect to KRAS): SPR KD ratio NRAS/KRAS, class symbols; for NRAS/KRAS (ratio of KD value for NRAS to KD value for KRAS) / ratio of the KD value with respect to GDP-bound NRAS wild-type protein to the KD value with respect to KRAS: SPR; for NRAS/KRAS (ratio of KD value for NRAS to KD value for KRAS): GDP-bound NRAS wild-type protein vs GDP-bound KRAS wild-type protein
[2] = target: GDP-bound HRAS wild-type protein (Homo sapiens, UniProt P01112); assay: Binding to HRAS by surface plasmon resonance (SPR), Single Cycle Kinetics; conditions: for HRAS/KRAS (ratio of KD value with respect to GDP-bound HRAS wild-type protein to KD value with respect to KRAS): SPR KD ratio HRAS/KRAS, class symbols; for HRAS/KRAS (ratio of KD value for HRAS to KD value for KRAS) / ratio of the KD value with respect to GDP-bound HRAS wild-type protein to the KD value with respect to KRAS: SPR; for HRAS/KRAS (ratio of KD value for HRAS to KD value for KRAS): GDP-bound HRAS wild-type protein vs GDP-bound KRAS wild-type protein
[3] = test system: human lung cancer strain NCI-H441;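 further: cell proliferation inhibition after four days measured by CellTiter-Glo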
[4] = read-out: NCI-H441 IC50, NCI-H441 cells, four days, CellTiter-Glo
[5] = read-out: NCI-H441 cell proliferation inhibitory activity, 50% proliferation inhibitory concentration (IC50 value), NCI-H441, four days, CellTiter-Glo

Sequence of GDP-bound HRAS wild-type protein (P01112 whole entry): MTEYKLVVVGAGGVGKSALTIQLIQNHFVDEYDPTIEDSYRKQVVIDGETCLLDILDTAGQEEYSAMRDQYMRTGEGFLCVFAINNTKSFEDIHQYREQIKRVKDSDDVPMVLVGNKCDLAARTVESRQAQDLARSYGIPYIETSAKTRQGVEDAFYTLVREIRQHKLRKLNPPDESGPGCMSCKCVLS
Sequence of GDP-bound NRAS wild-type protein (P01111 whole entry): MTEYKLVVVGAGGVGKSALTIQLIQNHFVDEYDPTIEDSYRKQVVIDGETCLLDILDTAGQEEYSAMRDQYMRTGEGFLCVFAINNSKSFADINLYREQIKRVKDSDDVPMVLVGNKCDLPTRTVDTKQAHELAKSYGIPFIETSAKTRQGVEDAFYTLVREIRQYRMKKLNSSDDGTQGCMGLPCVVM

Compound | IC50 [3] | IC50 [3, 5] | NRAS/KRAS (ratio of KD value with respect to GDP-bound NRAS wild-type protein to KD value with respect to KRAS) [1] | HRAS/KRAS (ratio of KD value with respect to GDP-bound HRAS wild-type protein to KD value with respect to KRAS) [2] | IC50 [3, 4] | NRAS/KRAS (ratio of KD value for NRAS to KD value for KRAS) [1] | HRAS/KRAS (ratio of KD value for HRAS to KD value for KRAS) [2] | ratio of the KD value with respect to GDP-bound NRAS wild-type protein to the KD value with respect to KRAS [1] | ratio of the KD value with respect to GDP-bound HRAS wild-type protein to the KD value with respect to KRAS [2]
CCO[C@@H]1C[C@H]2C(=O)NC3(CC(C)(C)C3)C(=O)N(C)[C@@H](C3CCCC3)C(=O)N(C)[C@H](C(=O)N(C)C)CC(=O)N(C)[C@@H](CC(C)C)C(=O)N[C@@H]([C@@H](C)CC)C(=O)N(C)CC(=O)N(C)[C@H]3C/C=C\CCN(C3=O)[C@@H](Cc3ccc(C(C)(F)F)cc3)C(=O)N(C)CC(=O)N[C@@H](CCc3ccc(C(F)(F)F)c(OC)c3)C(=O)N2C1 [PP2690] |  |  | AA (a compound having 20 or more is denoted as AA) | A (a compound having 10 or more and less than 20 is denoted as A) | 0.003 µM |  |  |  | 
CCC(CC)[C@H]1C(=O)N(C)[C@H](C(=O)N(C)C)CC(=O)N(C)[C@@H](COC)C(=O)N[C@@H]([C@@H](C)CC)C(=O)N(C)CC(=O)N(C)[C@H]2C/C=C\CCN(C2=O)[C@@H](Cc2ccc(C)cc2)C(=O)N(C)CC(=O)N[C@@H](CCc2ccc(Cl)c(Cl)c2)C(=O)N2CC3(CC3)C[C@H]2C(=O)N(C)C2(CC(C)(C)C2)C(=O)N1C [PP2820] | 0.0624 µM |  | AA (a compound having 20 or more is denoted as AA) | A (a compound having 10 or more and less than 20 is denoted as A) |  |  |  |  | 
CCC[C@H]1C(=O)N[C@@H]([C@@H](C)CC)C(=O)N(C)CC(=O)N(C)[C@H]2C/C=C\CCN(C2=O)[C@@H](Cc2ccc(C)cc2)C(=O)N(C)CC(=O)N[C@@H](CCc2ccc3ccn(C)c3c2)C(=O)N2C[C@H](OCC)C[C@H]2C(=O)NC2(CC(C)(C)C2)C(=O)N(C)[C@@H](C(CC)CC)C(=O)N(C)[C@H](C(=O)N(C)C)CC(=O)N1C [PP2914] | 0.311 µM |  | AA (a compound having 20 or more is denoted as AA) | A (a compound having 10 or more and less than 20 is denoted as A) |  |  |  |  | 
CCC[C@H]1C(=O)N[C@@H]([C@@H](C)CC)C(=O)N(C)CC(=O)N(C)[C@H]2C/C=C\CCN(C2=O)[C@@H](Cc2ccc(C)cc2)C(=O)N(C)CC(=O)N[C@@H](CCc2ccc(C(F)(F)F)c(OC)c2)C(=O)N2CC3(CC3)C[C@H]2C(=O)NC2(CC(C)(C)C2)C(=O)N(C)[C@@H]([C@@H](C)CC)C(=O)N(C)[C@H](C(=O)N(C)C)CC(=O)N1C [PP3011] | 0.0311 µM |  |  |  |  | A (a compound having 10 or more and less than 20 is denoted as A) | B (a compound having 3 or more and less than 10 is denoted as B) |  | 
CCC[C@H]1C(=O)N[C@@H]([C@@H](C)CC)C(=O)N(C)CC(=O)N(C)[C@H]2C/C=C\CCN(C2=O)[C@@H](Cc2ccc(C)cc2)C(=O)N(C)CC(=O)N[C@@H](CCc2ccc(C(F)(F)F)c(OC)c2)C(=O)N2CC3(CC3)C[C@H]2C(=O)NC2(CC(C)(C)C2)C(=O)N(C)[C@@H](CC(C)C)C(=O)N(C)[C@H](C(=O)N(C)C)CC(=O)N1C [PP3013] | 0.0297 µM |  |  |  |  | AA (a compound having 20 or more is denoted as AA) | B (a compound having 3 or more and less than 10 is denoted as B) |  | 
CCC[C@H]1C(=O)N[C@@H](C2CCCCC2)C(=O)N(C)CC(=O)N(C)[C@H]2C/C=C\CCN(C2=O)[C@@H](Cc2ccc(C)cc2)C(=O)N(C)CC(=O)N[C@@H](CCc2ccc(C(F)(F)F)c(Cl)c2)C(=O)N2C[C@H](OCC)C[C@H]2C(=O)NC2(CC(C)(C)C2)C(=O)N(C)[C@@H](CC(C)(C)C)C(=O)N(C)[C@H](C(=O)N(C)C)CC(=O)N1C [PP3018] | 0.0191 µM |  |  |  |  | A (a compound having 10 or more and less than 20 is denoted as A) | B (a compound having 3 or more and less than 10 is denoted as B) |  | 
CCC(CC)[C@H]1C(=O)N(C)[C@H](C(=O)N2CCCCC2)CC(=O)N(C)[C@H]2CCC/C=C/c3ccc(cc3)C[C@@H](C(=O)N(C)CC(=O)N[C@@H](CCc3ccc(Cl)c(Cl)c3)C(=O)N3CCC[C@H]3C(=O)NC3(CC(C)(C)C3)C(=O)N1C)N1CC/C=C\C[C@@H](C1=O)N(C)C(=O)CN(C)C(=O)[C@H]([C@@H](C)CC)NC2=O [PP3055] |  |  |  |  | 0.0692 µM | AA (a compound having 20 or more is denoted as AA) | A (a compound having 10 or more and less than 20 is denoted as A) |  | 
CC[C@H](C)[C@@H]1NC(=O)[C@@H]2CCCc3ccc(cc3)C[C@@H](C(=O)N(C)CC(=O)N[C@@H](CCc3ccc(C(F)(F)F)c(OC)c3)C(=O)N3C[C@H](OC(C)C)C[C@H]3C(=O)NC3(CC(C)(C)C3)C(=O)N(C)[C@@H](C3CCCC3)C(=O)N(C)[C@H](C(=O)N(C)CC)CC(=O)N2C)N2CC/C=C\C[C@@H](C2=O)N(C)C(=O)CN(C)C1=O [PP3084] |  | 0.0037 µM |  |  |  | A (a compound having 10 or more and less than 20 is denoted as A) | B (a compound having 3 or more and less than 10 is denoted as B) | A (a compound having 10 or more and less than 20 is denoted as A) | B (a compound having 3 or more and less than 10 is denoted as B)
CCO[C@@H]1C[C@H]2C(=O)N(C)C3(CC(C)(C)C3)C(=O)N(C)[C@@H](C3CCCC3)C(=O)N(C)[C@H](C(=O)N(C)C)CC(=O)N(C)[C@H]3CCCCCc4ccc(cc4)C[C@@H](C(=O)N(C)CC(=O)N[C@@H](CCc4ccc(C(F)(F)F)c(OC)c4)C(=O)N2C1)N1CC/C=C\C[C@@H](C1=O)N(C)C(=O)CN(C)C(=O)[C@H]([C@@H](C)CC)NC3=O [PP3091] |  | 0.0012 µM |  |  |  | A (a compound having 10 or more and less than 20 is denoted as A) | B (a compound having 3 or more and less than 10 is denoted as B) | A (a compound having 10 or more and less than 20 is denoted as A) | B (a compound having 3 or more and less than 10 is denoted as B)

More lines, main results first:

IC50 [3] | IC50 [3, 5] | Compound | NRAS/KRAS (ratio of KD value with respect to GDP-bound NRAS wild-type protein to KD value with respect to KRAS) [1] | HRAS/KRAS (ratio of KD value with respect to GDP-bound HRAS wild-type protein to KD value with respect to KRAS) [2] | IC50 [3, 4] | NRAS/KRAS (ratio of KD value for NRAS to KD value for KRAS) [1] | HRAS/KRAS (ratio of KD value for HRAS to KD value for KRAS) [2] | ratio of the KD value with respect to GDP-bound NRAS wild-type protein to the KD value with respect to KRAS [1] | ratio of the KD value with respect to GDP-bound HRAS wild-type protein to the KD value with respect to KRAS [2]
0.0058 µM |  | CCC[C@H]1C(=O)N[C@@H]([C@@H](C)CC)C(=O)N(C)CC(=O)N(C)[C@H]2C/C=C\CCN(C2=O)[C@@H](Cc2ccc(C(F)(F)F)cc2)C(=O)N(C)CC(=O)N[C@@H](CCc2cc(F)c(C(F)(F)F)c(F)c2)C(=O)N2C[C@H](OCC)C[C@H]2C(=O)NC2(CC(C)(C)C2)C(=O)N(C)[C@@H](CC(C)(C)C)C(=O)N(C)C(C(=O)N(C)C)CC(=O)N1C (stereo partly drawn) [PP2730] | A (a compound having 10 or more and less than 20 is denoted as A) | A (a compound having 10 or more and less than 20 is denoted as A) |  |  |  |  | 
0.0079 µM |  | CCCC[C@H]1C(=O)N[C@@H]([C@@H](C)CC)C(=O)N(C)CC(=O)N(C)[C@H]2C/C=C\CCN(C2=O)[C@@H](Cc2ccc(C)cc2)C(=O)N(C)CC(=O)N[C@@H](CCc2cc(F)c(C(F)(F)F)c(F)c2)C(=O)N2C[C@H](OCC)C[C@H]2C(=O)NC2(CC(C)(C)C2)C(=O)N(C)[C@@H](C2CCCC2)C(=O)N(C)[C@H](C(=O)N(C)C)CC(=O)N1C [PP2800] | A (a compound having 10 or more and less than 20 is denoted as A) | A (a compound having 10 or more and less than 20 is denoted as A) |  |  |  |  | 
0.0228 µM |  | CCC(CC)[C@H]1C(=O)N(C)[C@H](C(=O)N(C)C)CC(=O)N(C)[C@@H](COC)C(=O)N[C@@H]([C@@H](C)CC)C(=O)N(C)CC(=O)N(C)[C@H]2C/C=C\CCN(C2=O)[C@@H](Cc2ccc(C)cc2)C(=O)N(C)CC(=O)N[C@@H](CCc2ccc(Cl)c(Cl)c2)C(=O)N2C[C@H](OC3CCC3)C[C@H]2C(=O)N(C)C2(CC(C)(C)C2)C(=O)N1C [PP2816] | AA (a compound having 20 or more is denoted as AA) | A (a compound having 10 or more and less than 20 is denoted as A) |  |  |  |  | 
0.0634 µM |  | CCC[C@H]1C(=O)N[C@@H]([C@@H](C)CC)C(=O)N(C)CC(=O)N(C)[C@H]2C/C=C\CCN(C2=O)[C@@H](Cc2ccc(C)cc2)C(=O)N(C)CC(=O)N[C@@H](CCc2ccc(C(F)(F)F)c(OC)c2)C(=O)N2C[C@H](OCC)C[C@H]2C(=O)NC2(CC(C)(C)C2)C(=O)N(C)[C@@H](CC(F)(F)F)C(=O)N(C)[C@H](C(=O)N(C)C)CC(=O)N1C [PP3007] |  |  |  | A (a compound having 10 or more and less than 20 is denoted as A) | A (a compound having 10 or more and less than 20 is denoted as A) |  | 
 | 0.0025 µM | CCCO[C@@H]1C[C@H]2C(=O)NC3(CC(C)(C)C3)C(=O)N(C)[C@@H](C3CCCC3)C(=O)N(C)[C@H](C(=O)N(C)CC)CC(=O)N(C)[C@H]3CCCc4ccc(cc4)C[C@@H](C(=O)N(C)CC(=O)N[C@@H](CCc4ccc(C(F)(F)F)c(OC)c4)C(=O)N2C1)N1CC/C=C\C[C@@H](C1=O)N(C)C(=O)CN(C)C(=O)[C@H]([C@@H](C)CC)NC3=O [PP3083] |  |  |  | A (a compound having 10 or more and less than 20 is denoted as A) | A (a compound having 10 or more and less than 20 is denoted as A) | A (a compound having 10 or more and less than 20 is denoted as A) | A (a compound having 10 or more and less than 20 is denoted as A)
